Experiment [1] has as its system T47D (PI3Kα-H1047R) cell line. Kind of experiment: HTRF phospho-AKT(S473) cell assay in T47D cells. The class given is cell-based, human. The method in brief:
(§1)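 pAKT(S473) in lysates read by HTRF after a 2 h, 37 °C compound exposure (12-point 1:3 series, max 0.5% DMSO). SKBR3 (wild type, top 10 μM) received 70 ng/ml PDGF-BB during the final 15 min; T47D (H1047R, top 5 μM) was unstimulated. IC50 values derived from the dose-response.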
(Time-resolved FRET reads energy transfer from a long-lived donor to a nearby acceptor.)

Experiment [2] relates to SKBR3 (PI3Kα-Wild Type) cell line. Description: HTRF phospho-AKT(S473) cell assay in SKBR3 cells. The class given is cell-based, human. The method in brief:
as §1

Setting [3] is: Homo sapiens; T47D (PI3Kα-H1047R) cells, HTRF phospho-AKT(S473), 2 hours compound incubation.
[4] abbreviates: Homo sapiens, SK-BR-3; SKBR3 (PI3Kα-Wild Type) cells, HTRF phospho-AKT(S473), 2 hours compound incubation, PDGF-BB stimulated.
Setting [5] is: Homo sapiens; HTRF phospho-AKT(S473), T47D (PI3Kα-H1047R) cells, 2 hours compound incubation.
Setting [6] is: Homo sapiens, SK-BR-3; HTRF phospho-AKT(S473), SKBR3 (PI3Kα-Wild Type) cells, 2 hours compound incubation, PDGF-BB stimulated.

The structures appear in SMILES notation.

For the compound `Cc1cc([C@@H](C)Nc2ccc(Cl)nc2C(=O)NS(C)(=O)=O)c2nc(N3CCC(c4ccn(C)c(=O)c4)CC3)n(C)c(=O)c2c1` [Compound 319, (R)-6-chloro-3-((1-(3,6-dimethyl-2-(4-(1-methyl-2-oxo-1,2-dihydropyridin-4-yl)piperidin-1-yl)-4-oxo-3,4-dihydroquinazolin-8-yl)ethyl)amino)-N-(methylsulfonyl) picolinamide], the results for the IC50 in experiment [1] (setting [3]) and in experiment [2] (setting [4]) were below 250 nM and 1 to 5 µM, respectively.

On to `Cc1cc([C@@H](C)Nc2ccc(Cl)nc2C(=O)NS(C)(=O)=O)c2nc(N3CCC(c4ncc(C)nc4C)CC3)n(C)c(=O)c2c1` [Compound 525, (R)-6-chloro-3-((1-(2-(4-(3,5-dimethylpyrazin-2-yl)piperidin-1-yl)-3,6-dimethyl-4-oxo-3,4-dihydroquinazolin-8-yl)ethyl)amino)-N-(methylsulfonyl) picolinamide], for which the IC50 in experiment [1] (setting [5]) is below 250 nM; in experiment [2] (setting [6]), at least 5 µM.

Turning to `Cc1cc([C@@H](C)Nc2ccc(Cl)nc2C(=O)NS(C)(=O)=O)c2nc(N3CC[C@@H](Oc4cccnc4)C3)n(C)c(=O)c2c1` [Compound 345, 6-chloro-3-(((R)-1-(3,6-dimethyl-4-oxo-2-((R)-3-(pyridin-3-yloxy)pyrrolidin-1-yl)-3,4-dihydroquinazolin-8-yl)ethyl)amino)-N-(methylsulfonyl) picolinamide], the IC50 in experiment [1] (setting [3]) was below 250 nM; in experiment [2] (setting [4]) it was 1 to 5 µM.

For the compound `COc1ccccc1-n1cc2c(n1)CN(c1nc3c([C@@H](C)Nc4ccc(Cl)nc4C(=O)NS(C)(=O)=O)cc(C)cc3c(=O)n1C)C2` [Compound 705, (R)-6-chloro-3-((1-(2-(2-(2-methoxyphenyl)-2,6-dihydropyrrolo[3,4-c]pyrazol-5(4H)-yl)-3,6-dimethyl-4-oxo-3,4-dihydroquinazolin-8-yl)ethyl)amino)-N-(methylsulfonyl) picolinamide], the IC50 was 250 to 500 nM in experiment [1] (setting [5]) and at least 5 µM in experiment [2] (setting [6]).

Turning to `Cc1cc([C@@H](C)Nc2ccc(Cl)nc2C(=O)NS(C)(=O)=O)c2nc(N3CCN(c4nc(C)ncc4F)CC3)n(C)c(=O)c2c1` [Compound 575, (R)-6-chloro-3-((1-(2-(4-(5-fluoro-2-methylpyrimidin-4-yl)piperazin-1-yl)-3,6-dimethyl-4-oxo-3,4-dihydroquinazolin-8-yl)ethyl)amino)-N-(methylsulfonyl) picolinamide], the values for the IC50 in experiment [1] (setting [5]) and in experiment [2] (setting [6]) were below 250 nM and 1 to 5 µM, respectively.

Regarding `[2H]C([2H])([2H])n1ccc(C2CCN(c3nc4c([C@@H](C)Nc5ccc(Cl)nc5C(=O)NS(C)(=O)=O)cc(C)cc4c(=O)n3C)CC2)n1` [Compound 746, (R)-6-chloro-3-((1-(3,6-dimethyl-2-(4-(1-(methyl-d3)-1H-pyrazol-3-yl)piperidin-1-yl)-4-oxo-3,4-dihydroquinazolin-8-yl)ethyl)amino)-N-(methylsulfonyl) picolinamide], the IC50 in experiment [1] (setting [5]) was below 250 nM; in experiment [2] (setting [6]) it was at least 5 µM.

As to `Cc1cc([C@@H](C)Nc2ccc(Cl)nc2C(=O)NS(C)(=O)=O)c2nc(N3CCC(c4ccnn4CC(F)(F)F)CC3)n(C)c(=O)c2c1` [Compound 488, (R)-6-chloro-3-((1-(3,6-dimethyl-4-oxo-2-(4-(1-(2,2,2-trifloroethyl)-1H-pyrazol-5-yl)piperidin-1-yl)-3,4-dihydroquinazolin-8-yl)ethyl)amino)-N-(methylsulfonyl) picolinamide], the IC50 in experiment [1] (setting [5]) is below 250 nM; in experiment [2] (setting [6]), 1 to 5 µM.

As to `COc1cc([C@H]2[C@@H]3CN(c4nc5c([C@@H](C)Nc6ccc(Cl)nc6C(=O)NS(C)(=O)=O)cc(C)cc5c(=O)n4C)C[C@@H]32)n[nH]1` [Compound 722, 6-chloro-3-(((R)-1-(2-((1R,5S,6R)-6-(5-methoxy-1H-pyrazol-3-yl)-3-azabicyclo[3.1.0]hexan-3-yl)-3,6-dimethyl-4-oxo-3,4-dihydroquinazolin-8-yl)ethyl)amino)-N-(methylsulfonyl) picolinamide], the IC50 in experiment [1] (setting [5]) lay in the range of 250 to 500 nM; in experiment [2] (setting [6]) it was 1 to 5 µM.

The term IC50 denotes the concentration that gives 50% inhibition. Lower therefore signals greater potency.

Source of the values: patent publication US12281122B1, “PI3K inhibitors” (Cogent Biosciences, Inc., priority 2023, dated 2025).
